Patent publication US9669036B2, “Modulation of reactivation of a latent virus” (priority 2013, dated 2017)

System: latent HSV-1(F)
Type: cell-based
Conditions: for Significant Activation of Latent HSV / lowest effective concentration: ganglionic organ cultures in medium containing NGF and EGF; for Significant Activation of Latent HSV: three concentrations tested; for lowest effective concentration: activation of latent HSV; for reactivation of HSV in trigeminal ganglia: ganglia harvested 30 days after infection, TSA 400 nM, MS275 or MC1568 10 μM, 20 μM; for accumulation of viral mRNAs with cycloheximide compared with the drug alone / amounts of the LAT and miRNAs in cycloheximide-treated ganglia compared with the drug alone: cycloheximide 150 μg/ml, TSA 400 nM or NSC74859 10 μM
[1] = NGF+EGF medium, 24 h, CTB 200 μM, 500 μM
[2] = medium containing NGF and EGF, 24 h

## O=C(Nc1ccc2c(O)cc(S(=O)(=O)O)cc2c1)Nc1ccc2c(O)cc(S(=O)(=O)O)cc2c1 [AMI-1]
24 h after excision
  Significant Activation of Latent HSV: No
Medium containing NGF and EGF, all concentrations tested
  Comments: activation of latent HSV: No activation

## Cn1c(=O)n(-c2ccc(C(C)(C)C#N)cc2)c2c3cc(-c4cnc5ccccc5c4)ccc3ncc21 [BEZ-235]
24 h
  lowest effective concentration: 40 nM lowest effective
24 h after excision
  Significant Activation of Latent HSV: Yes

## CCOc1ccccc1C(=O)Nc1ccc(Cl)c(C(F)(F)F)c1 [CTB, N-(4-Chloro-3-trifluoromethyl-phenyl)-2-ethoxy-benzamide]
[1]
  decrease of miRNAs and the LAT following exposure to the drug: approximately 10 fold
  increase of all viral mRNAs following exposure to the drug: approximately 50 fold

## CS(=O)(=O)N1CCN(Cc2cc3nc(-c4cccc5[nH]ncc45)nc(N4CCOCC4)c3s2)CC1 [GDC-0941]
24 h
  lowest effective concentration: 10 nM lowest effective
24 h after excision
  Significant Activation of Latent HSV: Yes

## Cc1sc2c(c1C)C(c1ccc(Cl)cc1)=N[C@@H](CC(=O)OC(C)(C)C)c1nnc(C)n1-2 [JQ1]
24 h after excision
  Significant Activation of Latent HSV: No

## Cn1cc(/C=C/C(=O)c2cccc(F)c2)cc1/C=C/C(=O)NO [MC1568, (E)-3-(4-((E)-3-(3-fluorophenyl)-3-oxoprop-1-enyl)-1-methyl-1H-pyrrol-2-yl)-N-hydroxyacrylamide]
[2]
  reactivation of HSV in trigeminal ganglia: induced the reactivation of HSV

## NC1(c2ccc(-c3nc4ccn5c(=O)[nH]nc5c4cc3-c3ccccc3)cc2)CCC1 [MK-2206]
24 h
  lowest effective concentration: 2.5 nM lowest effective
24 h after excision
  Significant Activation of Latent HSV: Yes

## Nc1ccccc1NC(=O)c1ccc(CNC(=O)OCc2cccnc2)cc1 [MS275, pyridin-3-ylmethyl 4-((2-aminophenyl)carbamoyl)benzylcarbamate]
[2]
  reactivation of HSV in trigeminal ganglia: induced the reactivation of HSV

## Cc1ccc(S(=O)(=O)OCC(=O)Nc2ccc(C(=O)O)c(O)c2)cc1 [NSC74859]
NGF+EGF medium, 24 h
  accumulation of viral mRNAs with cycloheximide compared with the drug alone: consistently lower
  amounts of the LAT and miRNAs in cycloheximide-treated ganglia compared with the drug alone: higher
NGF+EGF medium, 24 h after excision, NSC74859 10 mM and 50 μM
  representatives of all four temporally regulated groups of viral genes (ICP27, TK, VP16, UL41 mRNAs): upregulated

## Cc1[nH]c2ccccc2c1CCNCc1ccc(/C=C/C(=O)NO)cc1 [Panobinostat]
24 h
  lowest effective concentration: 0.5 nM lowest effective

## CO[C@H]1C[C@@H]2CC[C@@H](C)[C@@](O)(O2)C(=O)C(=O)N2CCCC[C@H]2C(=O)O[C@H]([C@H](C)C[C@@H]2CC[C@@H](O)[C@H](OC)C2)CC(=O)[C@H](C)/C=C(\C)[C@@H](O)[C@@H](OC)C(=O)[C@H](C)C[C@H](C)/C=C/C=C/C=C/1C [Rapamycin]
24 h
  lowest effective concentration: 1 nM lowest effective

## CC(/C=C/C(=O)NO)=C\[C@@H](C)C(=O)c1ccc(N(C)C)cc1 [TSA, Trichostatin A]
NGF+EGF medium, 24 h
  accumulation of viral mRNAs with cycloheximide compared with the drug alone: similar
  amounts of the LAT and miRNAs in cycloheximide-treated ganglia compared with the drug alone: higher
NGF+EGF+TSA (400 nM), with or without cycloheximide 150 μg/ml, 24 h
  accumulation of mRNAs relative to freshly excised ganglia: 10 fold
[2]
  reactivation of HSV in trigeminal ganglia: induced the reactivation of HSV

## C[C@@H]1CCN(C(=O)CC#N)C[C@@H]1N(C)c1ncnc2[nH]ccc12 [Tofacitinib]
24 h after excision
  Significant Activation of Latent HSV: No

## COc1cc2c(NC3CCN(C(C)C)CC3)nc(C3CCCCC3)nc2cc1OCCCN1CCCC1 [UNC0638]
24 h after excision
  Significant Activation of Latent HSV: No

## COc1cc(/C=C/C(=O)CC(=O)/C=C/c2ccc(O)c(OC)c2)ccc1O [curcumin]
Curcumin 100 μM, 300 μM, 24 h, independent of medium (NGF+EGF or antibody to NGF)
  reactivation of HSV and degradation of the LAT and miRNAs: blocked
Curcumin at the higher concentration (300 μM)
  accumulation of the LAT: suppressed
Medium containing antibody to NGF, compared with freshly excised ganglia
  accumulation of small amounts of mRNAs normally detected at the time of excision of the ganglia: suppressed
